Measured values taken from patent US20240115718A1, “METHODS OF USING ANTI-CD79B IMMUNOCONJUGATES TO TREAT DIFFUSE LARGE B-CELL LYMPHOMA” (Genentech, Inc., priority 2021, published 2024).

Test system: patients with relapsed or refractory diffuse large B-cell lymphoma (R/R DLBCL)
Assay: Phase Ib/II study of Pola-R-Len, safety: adverse events graded per NCI CTCAE Version 4.0
Assay type: in vivo, human
Settings: in combination with polatuzumab vedotin 1.8 mg/kg and rituximab 375 mg/m^2; PO Days 1-21 of 28-day cycles
Description: Adverse events were assessed based on the National Cancer Institute Common Terminology Criteria for Adverse Events (NCI CTCAE; Version 4.0). Adverse events that are not specifically listed in the NCI CTCAE were graded as follows: • Grade 1: Mild; asymptomatic or mild symptoms; clinical or diagnostic observations only; or intervention not indicated. • Grade 2: Moderate; minimal, local, or non-invasive intervention indicated; or limiting age-appropriate instrumental activities of daily living. • Grade 3: Severe or medically significant, but not immediately life threatening; hospitalization or prolongation of hospitalization indicated; disabling; or limiting self-care activities of daily living. • Grade 4: Life-threatening consequences or urgent intervention indicated. • Grade 5: Death related to adverse event.
The following populations were defined: • The primary safety and efficacy populations included patients who received at least one dose of any component of the treatment combination. • The intent-to-treat population included patients enrolled in the study.

For `Nc1cccc2c1CN(C1CCC(=O)NC1=O)C2=O` (stereo not shown) [lenalidomide], the “recommended Phase II dose (RP2D)” value was 20 mg.
